We go through one compound from patent US20200179392A1, “Idelalisib for Treating Proliferative Vitreoretinopathy and Abnormal Intraocular Neovascularization” (priority 2016, published 2020).

The test deals with activation of Erk. Kind of test: Western blot of vitreous-induced Erk activation in RPEM cells. It counts as cell-based, human. Conditions: idelalisib 10.0 μM (selective dose for PI3Kδ). On the procedure:
1B. After growth factor-deprivation, the RPEM cells were pretreated with idelalisib at indicated concentrations, or its vehicle for 30 minutes, and then treated with normal rabbit vitreous diluted (1:2) in DMEM (RV), V: vehicle (0.1% dimethyl sulfoxide) or PDGF-B (10 ng/ml). After the treatment for 30 minutes at 37° C., their lysates were subjected to a western blot analysis using the indicated antibodies. This is representative of three independent experiments. Cells grown to 90% confluence in wells of 24-well plates were serum starved for 24 hours, and then treated with appropriated agents. After two washes with ice-cold phosphate buffered saline (PBS), the cells were lysed in 1× sample buffer diluted with protein extraction buffer (10 mM Tris-HCl, pH 7.4; 5 mM […] (EDTA), 50 mM NaCl, 50 mM NaF, 1% Triton X-100, 20 μg/ml aprotinin, 2 mM Na3VO4, 1 mM phenylmethylsulfonyl fluoride] from 5× sample buffer [25 mM EDTA, 10% sodium dodecyl sulfate (SDS), 500 mM dithiothreitol (DTT), 50% sucrose, 500 mM Tris.HCl (pH=6.8), 0.5% bromophenol blue). The samples were boiled for 5 minutes and then centrifuged for 5 minutes at 13,000×g, 4° C. […] Signal intensity was determined by densitometry using NIH imageJ software^24, 44, 50.

Regarding `CC[C@H](Nc1ncnc2[nH]cnc12)c1nc2cccc(F)c2c(=O)n1-c1ccccc1` [idelalisib], the “inhibition of vitreous-induced activation of Erk” value is “neither inhibited”.
